In article PMC9403976, “Elucidating the path to Plasmodium prolyl-tRNA synthetase inhibitors that overcome halofuginone resistance” (Nature Communications, 2022):
“And” between values parts separate entries of the source, which are not always exact repeats. Identical values can stand only once. Like-named read-outs stand apart in the source and are kept apart here.

How the values were obtained:
PfcProRS = molecular target: T1, PfcProRS (Plasmodium falciparum, UniProt Q8I5R7); type: binding; conditions: single replicates
T1 construct: made in house; host or cells: E. coli SoluBL-21
T1 sequence (Q8I5R7 249-746): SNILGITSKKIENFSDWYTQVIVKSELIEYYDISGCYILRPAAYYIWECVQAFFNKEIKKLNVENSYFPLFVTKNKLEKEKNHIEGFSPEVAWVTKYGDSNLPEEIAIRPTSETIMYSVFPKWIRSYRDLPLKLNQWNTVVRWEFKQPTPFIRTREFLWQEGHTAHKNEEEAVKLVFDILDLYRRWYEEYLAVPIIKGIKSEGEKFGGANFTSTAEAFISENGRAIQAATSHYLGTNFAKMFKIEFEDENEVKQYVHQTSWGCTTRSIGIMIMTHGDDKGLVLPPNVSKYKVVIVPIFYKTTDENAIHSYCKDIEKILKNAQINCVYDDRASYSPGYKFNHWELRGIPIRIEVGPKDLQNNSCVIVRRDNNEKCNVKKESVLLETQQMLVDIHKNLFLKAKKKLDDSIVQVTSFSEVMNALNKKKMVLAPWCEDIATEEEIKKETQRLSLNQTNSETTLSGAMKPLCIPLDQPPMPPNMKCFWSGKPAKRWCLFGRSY

HsProRS = HsProRS (Homo sapiens, UniProt P07814); test: TR-FRET ligand displacement assay with tracer MAT379 (CoraFluor-1-Halo and anti-His6 antibody formats); type: binding; set-up: made in house; host or cells: E. coli SoluBL-21; conditions: for TR-FRET dose-response, normalized signal (SI Fig 11): individual replicates
HsProRS, sequence (P07814 996-1512): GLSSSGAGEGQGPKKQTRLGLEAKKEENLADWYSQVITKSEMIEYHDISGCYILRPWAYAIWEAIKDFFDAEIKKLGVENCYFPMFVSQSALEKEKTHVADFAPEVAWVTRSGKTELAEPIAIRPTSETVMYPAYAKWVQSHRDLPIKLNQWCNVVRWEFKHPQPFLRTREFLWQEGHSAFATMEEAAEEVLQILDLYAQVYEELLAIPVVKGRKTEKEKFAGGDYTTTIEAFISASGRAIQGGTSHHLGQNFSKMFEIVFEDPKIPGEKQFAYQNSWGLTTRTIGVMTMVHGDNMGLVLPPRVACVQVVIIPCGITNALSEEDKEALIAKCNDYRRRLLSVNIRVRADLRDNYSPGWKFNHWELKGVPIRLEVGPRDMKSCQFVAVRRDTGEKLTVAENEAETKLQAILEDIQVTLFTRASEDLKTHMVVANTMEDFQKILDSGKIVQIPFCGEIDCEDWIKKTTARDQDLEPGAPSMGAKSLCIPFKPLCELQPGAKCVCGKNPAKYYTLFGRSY

## NC1CCN(C(=O)Nc2nccnc2C(=O)NC2Cc3ccccc3C2)CC1 [compound 8]
PfcProRS; Log[inhibitor] (M) -5.000
  dose-response signal (normalized), SI Fig 8: 9.61E-01 and 8.92E-01 and 8.44E-01
PfcProRS; Log[inhibitor] (M) -5.301
  dose-response signal (normalized), SI Fig 8: 8.74E-01 and 9.88E-01 and 9.73E-01
PfcProRS; Log[inhibitor] (M) -5.601
  dose-response signal (normalized), SI Fig 8: 9.98E-01 and 1.02E+00 and 1.04E+00
PfcProRS; Log[inhibitor] (M) -5.904
  dose-response signal (normalized), SI Fig 8: 1.08E+00 and 1.04E+00 (2×)
PfcProRS; Log[inhibitor] (M) -6.208
  dose-response signal (normalized), SI Fig 8: 1.22E+00 and 1.03E+00 and 1.05E+00
PfcProRS; Log[inhibitor] (M) -6.509
  dose-response signal (normalized), SI Fig 8: 1.14E+00 and 1.03E+00 and 1.04E+00
PfcProRS; Log[inhibitor] (M) -6.796
  dose-response signal (normalized), SI Fig 8: 1.01E+00 and 1.02E+00 and 1.08E+00
PfcProRS; Log[inhibitor] (M) -7.108
  dose-response signal (normalized), SI Fig 8: 9.50E-01 and 9.64E-01 and 1.00E+00
PfcProRS; Log[inhibitor] (M) -7.409
  dose-response signal (normalized), SI Fig 8: 1.03E+00 and 1.01E+00 and 1.12E+00
PfcProRS; Log[inhibitor] (M) -7.710
  dose-response signal (normalized), SI Fig 8: 1.12E+00 and 1.00E+00 and 9.44E-01
PfcProRS; Log[inhibitor] (M) -8.000
  dose-response signal (normalized), SI Fig 8: 1.00E+00 and 9.85E-01 and 1.03E+00
PfcProRS; Log[inhibitor] (M) -8.301
  dose-response signal (normalized), SI Fig 8: 1.00E+00 and 9.83E-01 and 1.01E+00
PfcProRS; Log[inhibitor] (M) -8.602
  dose-response signal (normalized), SI Fig 8: 1.04E+00 (2×) and 1.03E+00
PfcProRS; Log[inhibitor] (M) -9.000
  dose-response signal (normalized), SI Fig 8: 9.59E-01 and 1.02E+00 and 1.11E+00
PfcProRS; Log[inhibitor] (M) -9.301
  dose-response signal (normalized), SI Fig 8: 9.77E-01 and 1.08E+00 and 1.13E+00
HsProRS
  IC50: > 10 µM
HsProRS; + 100 μM proline, 10 μM
  HsProRS % signal at 10 μM, + 100 μM proline: 64.1%
HsProRS; Log[inhibitor] (M) -5.000
  normalized TR-FRET ligand displacement signal, dose-response replicates (SI Fig 6): 7.72E-01 and 8.67E-01 and 9.20E-01
  TR-FRET dose-response, normalized signal (SI Fig 11): 7.80E-01 and 8.21E-01 and 8.27E-01
HsProRS; Log[inhibitor] (M) -5.301
  normalized TR-FRET ligand displacement signal, dose-response replicates (SI Fig 6): 9.51E-01 and 8.63E-01 and 8.95E-01
  TR-FRET dose-response, normalized signal (SI Fig 11): 9.22E-01 and 8.53E-01 and 9.03E-01
HsProRS; Log[inhibitor] (M) -5.601
  normalized TR-FRET ligand displacement signal, dose-response replicates (SI Fig 6): 9.39E-01 and 9.19E-01 and 9.88E-01
  TR-FRET dose-response, normalized signal (SI Fig 11): 8.79E-01 and 9.90E-01 and 8.75E-01
HsProRS; Log[inhibitor] (M) -5.904
  normalized TR-FRET ligand displacement signal, dose-response replicates (SI Fig 6): 9.40E-01 and 9.19E-01 and 1.05E+00
  TR-FRET dose-response, normalized signal (SI Fig 11): 9.88E-01 and 9.41E-01 and 9.72E-01
HsProRS; Log[inhibitor] (M) -6.208
  normalized TR-FRET ligand displacement signal, dose-response replicates (SI Fig 6): 8.89E-01 and 1.04E+00 and 1.05E+00
  TR-FRET dose-response, normalized signal (SI Fig 11): 9.38E-01 (2×) and 9.73E-01
HsProRS; Log[inhibitor] (M) -6.509
  normalized TR-FRET ligand displacement signal, dose-response replicates (SI Fig 6): 1.02E+00 and 9.90E-01 and 9.84E-01
  TR-FRET dose-response, normalized signal (SI Fig 11): 9.67E-01 and 9.58E-01 and 9.39E-01
HsProRS; Log[inhibitor] (M) -6.796
  normalized TR-FRET ligand displacement signal, dose-response replicates (SI Fig 6): 1.02E+00 and 1.08E+00 and 1.11E+00
  TR-FRET dose-response, normalized signal (SI Fig 11): 9.44E-01 and 9.26E-01 and 9.45E-01
HsProRS; Log[inhibitor] (M) -7.108
  normalized TR-FRET ligand displacement signal, dose-response replicates (SI Fig 6): 1.06E+00 and 1.03E+00 and 1.02E+00
  TR-FRET dose-response, normalized signal (SI Fig 11): 8.82E-01 and 8.87E-01 and 8.97E-01
HsProRS; Log[inhibitor] (M) -7.409
  normalized TR-FRET ligand displacement signal, dose-response replicates (SI Fig 6): 1.03E+00 (2×) and 9.94E-01
  TR-FRET dose-response, normalized signal (SI Fig 11): 8.83E-01 and 9.01E-01 and 8.97E-01
HsProRS; Log[inhibitor] (M) -7.710
  normalized TR-FRET ligand displacement signal, dose-response replicates (SI Fig 6): 9.60E-01 and 1.05E+00 and 1.02E+00
  TR-FRET dose-response, normalized signal (SI Fig 11): 9.46E-01 and 8.63E-01 and 9.47E-01
HsProRS; Log[inhibitor] (M) -8.000
  normalized TR-FRET ligand displacement signal, dose-response replicates (SI Fig 6): 8.80E-01 and 1.08E+00 and 9.66E-01
  TR-FRET dose-response, normalized signal (SI Fig 11): 9.68E-01 and 9.54E-01 and 9.46E-01
HsProRS; Log[inhibitor] (M) -8.301
  normalized TR-FRET ligand displacement signal, dose-response replicates (SI Fig 6): 9.78E-01 and 9.63E-01 and 8.97E-01
  TR-FRET dose-response, normalized signal (SI Fig 11): 9.20E-01 and 9.17E-01 and 9.26E-01
HsProRS; Log[inhibitor] (M) -8.602
  normalized TR-FRET ligand displacement signal, dose-response replicates (SI Fig 6): 9.99E-01 and 9.46E-01 and 8.78E-01
  TR-FRET dose-response, normalized signal (SI Fig 11): 9.38E-01 and 9.59E-01 and 9.18E-01
HsProRS; Log[inhibitor] (M) -9.000
  normalized TR-FRET ligand displacement signal, dose-response replicates (SI Fig 6): 8.55E-01 and 9.99E-01 and 1.05E+00
  TR-FRET dose-response, normalized signal (SI Fig 11): 9.56E-01 and 9.64E-01 and 9.58E-01
HsProRS; Log[inhibitor] (M) -9.301
  normalized TR-FRET ligand displacement signal, dose-response replicates (SI Fig 6): 1.04E+00 and 8.74E-01 and 1.01E+00
  TR-FRET dose-response, normalized signal (SI Fig 11): 9.54E-01 and 1.00E+00 (2×)
HsProRS; no added proline/ATP (-), 10 μM
  HsProRS % signal at 10 μM: 81.0%
HsProRS; read-out: HsProRS IC50 + 100 μM proline, + 100 μM proline
  IC50: > 10 µM
